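GI50 is the concentration that inhibits growth by half. Definition used: TGI = concentration required for complete inhibition of growth.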
Legend:
Assay in all cases: NCI anticancer screen, dose series, 384-well format
[1] = system: LOX IMVI melanoma
[2] = system: CCRF-CEM leukemia
[3] = system: OVCAR-3 ovarian
[4] = system: HCC-2998 colon
[5] = system: MDA-MB-231 breast
[6] = system: NCI-H23 lung
[7] = system: SF-539 CNS
[8] = system: EKVX NSCLC
[9] = system: NCI-H460 NSCLC
[10] = system: RPMI-8226 leukemia
[11] = system: NCI-H322M lung
[12] = system: SF-295 CNS
[13] = system: TK-10 renal
[14] = system: IGROV1 ovarian
[15] = system: A549 NSCLC
[16] = system: SNB-75 CNS
[17] = system: SF-268 CNS
[18] = system: MDA-MB-468 breast
[19] = system: OVCAR-8 ovarian
[20] = system: MCF7 breast
[21] = system: HOP-92 NSCLC
[22] = system: OVCAR-4 ovarian
[23] = system: HS 578T breast
[24] = system: SR leukemia
[25] = system: SNB-19 CNS
[26] = system: MOLT-4 leukemia
[27] = system: HL-60(TB) leukemia
[28] = system: HT29 colon
[29] = system: K-562 leukemia
[30] = system: NCI-H226 lung

Nc1cc(C(F)(F)F)c(-c2nc(N3CCOCC3)nc(N3CCOCC3)n2)cn1
TGI [1]: 9360 nM
GI50 [2]: 1340 nM
TGI [2]: 10900 nM
GI50 [3]: 354 nM
TGI [3]: 3920 nM
GI50 [4]: 1100 nM
TGI [4]: 48900 nM
GI50 [5]: 834 nM
TGI [5]: 38700 nM
GI50 [6]: 552 nM
TGI [6]: 15900 nM
GI50 [7]: 1150 nM
TGI [7]: 13700 nM
GI50 [8]: 342 nM
TGI [8]: 3530 nM
GI50 [9]: 246 nM
TGI [9]: 10400 nM
GI50 [10]: 221 nM
TGI [10]: 1270 nM
GI50 [11]: 534 nM
TGI [11]: 11500 nM
GI50 [12]: 405 nM
TGI [12]: 2440 nM
GI50 [13]: 432 nM
TGI [13]: 3870 nM
GI50 [14]: 119 nM
TGI [14]: 468 nM
GI50 [15]: 902 nM
TGI [15]: 9000 nM
GI50 [16]: 288 nM
TGI [16]: 2920 nM
GI50 [17]: 1460 nM
TGI [17]: 18200 nM
GI50 [18]: 353 nM
TGI [18]: 2200 nM
GI50 [19]: 1120 nM
TGI [19]: 93600 nM
GI50 [20]: 151 nM
TGI [20]: 11900 nM
GI50 [21]: 274 nM
TGI [21]: 2120 nM
GI50 [22]: 1480 nM
TGI [22]: 7900 nM
GI50 [23]: 276 nM
TGI [23]: 1860 nM
TGI [24]: 255 nM
GI50 [25]: 8530 nM
TGI [25]: 50200 nM
GI50 [26]: 293 nM
TGI [26]: 1610 nM
GI50 [27]: 170 nM
TGI [27]: 3430 nM
GI50 [28]: 554 nM
TGI [28]: 14800 nM
GI50 [29]: 2780 nM
TGI [29]: 40500 nM
GI50 [30]: 563 nM
TGI [30]: 4350 nM
